Reference: the Deep4Chem optical property database

Assay: solvent given as SMILES

## Cc1cc(C)c(C2=C3C=CC4=[N+]3[B-]3(Oc5ccccc54)Oc4ccccc4-c4ccc2n43)c(C)c1 (stereo unspecified)
In ClC(Cl)Cl
  emission maximum: 645 nm

## CCCCCCCCOc1ccc(C2=C3C(C)=C(C#Cc4ccc(B(c5c(C)cc(C)cc5C)c5c(C)cc(C)cc5C)cc4)C(C)=[N+]3[B-](F)(F)n3c(C)c(C#Cc4ccc(B(c5c(C)cc(C)cc5C)c5c(C)cc(C)cc5C)cc4)c(C)c32)cc1
In CC#N
  emission maximum: 598 nm
In CCCCCC
  emission maximum: 604 nm
In ClCCl
  emission maximum: 602 nm

## Cc1ccc(/C2=c3\cc/c(o3)=C(\c3ccc(C)cc3)c3ccc([nH]3)-c3ccc4n3[B-](F)(F)[N+]3=C(C=CC3=C4c3cccs3)c3ccc2[nH]3)cc1
In ClC(Cl)Cl
  emission maximum: 722 nm

## COc1ccc(C(=Cc2ccc(/C=C(\C#N)c3ccccc3)cc2)c2ccc(OC)cc2)cc1
In C1CCOC1
  emission maximum: 510 nm

## CC(C)(C)c1ccc(C2=c3sc4ccccc4c3=[N+]3C2=Nc2c(-c4ccc(C(C)(C)C)cc4)c4sc5ccccc5c4n2[B-]3(F)F)cc1
In C1CCOC1
  emission maximum: 800 nm
In Cc1ccccc1
  emission maximum: 796 nm
In ClC(Cl)Cl
  emission maximum: 794 nm

## F[B-]12Oc3ccccc3-c3c4[n+]5c(c([n+]31)-c1ccccc1O2)-c1ccccc1O[B-]5(F)Oc1ccccc1-4
In ClCCl
  emission maximum: 623 nm

## CCCCCCc1ccc(-n2c3[n+](c4c5ccccc5c5ccccc5c42)[B-](C)(C)c2cc(-n4c5ccccc5c5ccccc54)ccc2-3)cc1
In C1CCOC1
  emission maximum: 409 nm
In CC#N
  emission maximum: 409 nm
In Cc1ccccc1
  emission maximum: 410 nm
In ClCCl
  emission maximum: 408 nm

## CN(C)c1ccc(/C=C/c2cc(/C=C/c3ccc(N(C)C)cc3)nc(/C=C/c3ccc(N(c4ccccc4)c4ccccc4)cc3)n2)cc1
In C1CCOC1
  emission maximum: 521 nm
In CC#N
  emission maximum: 584 nm
In CC(C)=O
  emission maximum: 561 nm
In CCCCCCC
  emission maximum: 451 nm
In CS(C)=O
  emission maximum: 596 nm
In Cc1ccccc1
  emission maximum: 480 nm
In ClCCl
  emission maximum: 533 nm

## Cc1cc(=O)oc2cc3cc(O)ccc3cc12
In CC#N
  emission maximum: 450 nm
In CCO
  emission maximum: 466 nm

## CCCCCCN1C(=O)c2cccc3c(-c4ccc(OC)s4)ccc(c23)C1=O
In ClC(Cl)Cl
  emission maximum: 503 nm

## CC1(C)OB(c2cc3ccc4cccc5ccc(c2)c3c45)OC1(C)C
In Cc1ccccc1
  emission maximum: 386 nm

## COc1ccc2c3c(c4ccc(OC)cc4c2c1)C1(c2ccccc2-c2ccccc21)c1ccccc1-3
In C1CCCCC1
  emission maximum: 389 nm

## CCN(CC)c1ccc(/C=N/c2cc3ccccc3cc2/N=C/c2ccc(N(CC)CC)cc2O)c(O)c1
In CC#N
  emission maximum: 512 nm
In CN(C)C=O
  emission maximum: 516 nm
In ClCCl
  emission maximum: 539 nm

## Cc1cc(=O)c2ccc(N)cc2o1
In C1CCOC1
  emission maximum: 382 nm
In C1COCCO1
  emission maximum: 378 nm
In CC#N
  emission maximum: 388 nm
In CC(C)O
  emission maximum: 418 nm
In CCCCO
  emission maximum: 417 nm
In CCCO
  emission maximum: 416 nm
In CCOC(C)=O
  emission maximum: 378 nm
In CN(C)C=O
  emission maximum: 408 nm
In CO
  emission maximum: 421 nm
In CS(C)=O
  emission maximum: 402 nm
In ClC(Cl)Cl
  emission maximum: 380 nm
In O
  emission maximum: 435 nm

## FC(F)(F)c1ccc(C2=Cc3ccccc3[Si]2(c2ccccc2)c2ccccc2)cc1
In ClCCl
  emission maximum: 401 nm

## CC(C)(C)C1Nc2ccccc2C(=O)N1c1ccccc1 (stereo unspecified)
In CC#N
  emission maximum: 417 nm
In CCCCCCCCCCCCCCCC
  emission maximum: 388 nm
In CO
  emission maximum: 449 nm
In ClC(Cl)Cl
  emission maximum: 409 nm
In c1ccccc1
  emission maximum: 400 nm

## CCCCCCCCc1ccc(-c2c3cc(-c4cc(CCCCCCCC)c(-c5ccc(-c6sc(/C=C7\SC(=S)N(CC)C7=O)cc6CCCCCCCC)s5)s4)sc3c(-c3ccc(CCCCCCCC)s3)c3cc(-c4cc(CCCCCCCC)c(-c5ccc(-c6sc(/C=C7\SC(=S)N(CC)C7=O)cc6CCCCCCCC)s5)s4)sc23)s1
In ClC(Cl)Cl
  emission maximum: 670 nm

## c1cc2c3c(c1)ccc1[n+]3[B-]3(Oc4cccc5ccc6[n+](c45)[B-](O2)(O3)n2c-6cc3c4ccccc4c4ccccc4c32)n2c-1cc1c3ccccc3c3ccccc3c12
In ClCCl
  emission maximum: 568 nm

## CCCCCCCCN1C(=O)c2ccc3c4c(-c5ccc(-n6c7ccccc7c7ccccc76)cc5)cc5c6c(ccc(c7c(-c8ccc(-n9c%10ccccc%10c%10ccccc%109)cc8)cc(c2c37)C1=O)c64)C(=O)N(CCCCCCCC)C5=O
In ClC(Cl)Cl
  emission maximum: 651 nm

## CC1CCC(=CS/C=C/c2ccc(/C=C/SC=C3CCC(C)CC3)cc2)CC1 (stereo unspecified)
In ClCCl
  emission maximum: 427 nm

## COc1cccc(-c2nc3sc4ccccc4c3s2)c1
In CS(C)=O
  emission maximum: 412 nm

## CC[n+]1c(C=C2C(=O)C(C=C3Sc4cc(Cl)ccc4N3C)=C2[O-])[se]c2ccccc21
In CO
  emission maximum: 674 nm
In ClC(Cl)Cl
  emission maximum: 699 nm

## C[Si](C)(C)c1ccc(C#N)c2ccccc12
In C1CCCCC1
  emission maximum: 333 nm

## CCCCCCn1c(=O)c2c3[nH]c4ccccc4oc3c3c(=O)n(CCCCCC)c(=O)c3c2c1=O
In ClCCl
  emission maximum: 560 nm

## COc1ccc(C#Cc2c3ccccc3c(C#Cc3ccc(OC)cc3)c3cc4sc(C)cc4cc23)cc1
In ClCCl
  emission maximum: 538 nm

## COc1ccc2c3c(c4ccc(OC)cc4c2c1)C(C)(C)c1c-3ccc2ccccc12
In C1CCCCC1
  emission maximum: 396 nm

## CN(C)c1ccc(/C=C/c2cnc(/C=C/c3ccc(C#N)cc3)o2)cc1
In ClCCl
  emission maximum: 640 nm

## CCCC1=Cc2nc1ccc1[nH]c(cc1CCC)c1nc(c(OC(=O)CCCC(=O)OC(C)(C)C)cc3[nH]c2cc3CCC)C(CCC)=C1
In Cc1ccccc1
  emission maximum: 651 nm

## Nc1ccc2c(c1)NC(=O)CC(=O)N2
In CS(C)=O
  emission maximum: 385 nm

## C(=C(c1ccccc1)c1ccccc1)c1ccc(C=C(c2ccccc2)c2ccccc2)cc1
In C1CCOC1
  emission maximum: 461 nm

## CC1(C)c2ccccc2N(c2ccc(-c3nc4c(C#N)ccc(C#N)c4nc3-c3ccc(N4c5ccccc5C(C)(C)c5ccccc54)cc3)cc2)c2ccccc21
In Cc1ccccc1
  emission maximum: 663 nm

## COC(=O)C(NC(=O)CCNc1cccc2ccccc12)C(C)C (stereo unspecified)
In CCO
  emission maximum: 415 nm

## CCCCCCCCCCCCCCCCOc1cc(C#Cc2ccc3ccccc3c2)c(OCCCCCCCCCCCCCCCC)cc1C#Cc1ccc(C=C(C#N)C#N)cc1
In Brc1ccccc1
  emission maximum: 582 nm
In C1CCCCC1
  emission maximum: 484 nm
In C1CCOC1
  emission maximum: 602 nm
In C1COCCO1
  emission maximum: 554 nm
In CCCCCC
  emission maximum: 480 nm
In CCCCCCCCO
  emission maximum: 596 nm
In CCCCOCCCC
  emission maximum: 524 nm
In CCOC(C)=O
  emission maximum: 590 nm
In CCOCC
  emission maximum: 550 nm
In Cc1ccccc1
  emission maximum: 530 nm
In ClC(Cl)(Cl)Cl
  emission maximum: 500 nm
In ClC(Cl)Cl
  emission maximum: 596 nm
In ClCCl
  emission maximum: 618 nm

## Cc1nc2cccc(-c3nc4ccccc4[nH]3)c2c(=O)[nH]1
In CN(C)C=O
  emission maximum: 441 nm

## CCOC(=O)CSc1nc2c(c(C#N)c1C#N)CCCCCC2
In c1ccccc1
  emission maximum: 408 nm

## N#Cc1ccc(-c2ccc(C3=CCCCC3)s2)s1
In C1CCOC1
  emission maximum: 441 nm
In CC#N
  emission maximum: 448 nm
In CCCCCC
  emission maximum: 427 nm
In CCO
  emission maximum: 436 nm
In OCCOCCO
  emission maximum: 449 nm
In c1ccncc1
  emission maximum: 448 nm

## CCCCCC(=O)c1c2c(c(C(=O)CCCCC)c3c1OC1(CCCC1)O3)OC1(CCCC1)O2
In CC#N
  emission maximum: 561 nm
In CCCCCC
  emission maximum: 525 nm
In CCO
  emission maximum: 596 nm
In CO
  emission maximum: 611 nm
In ClCCl
  emission maximum: 561 nm

## CN(C)c1ccc2nc(-c3ccccc3)sc2c1Cl
In C1CCCCC1
  emission maximum: 389 nm
In CC#N
  emission maximum: 466 nm
In CC(C)O
  emission maximum: 477.17 nm
In CO
  emission maximum: 472 nm
In CS(C)=O
  emission maximum: 465.05 nm
In ClC(Cl)Cl
  emission maximum: 437 nm
In c1ccccc1
  emission maximum: 425.86 nm

## N#Cc1nc(N(Cc2ccccc2)Cc2ccccc2)c(C#N)nc1N(Cc1ccccc1)Cc1ccccc1
In ClC(Cl)Cl
  emission maximum: 588 nm

## c1ccc(C(=C(c2ccccc2)c2ccc(-c3ccc(-c4nc5c(-c6ccc(-c7ccc(C(=C(c8ccccc8)c8ccccc8)c8ccccc8)cc7)cc6)sc(-c6ccc(-c7ccc(C(=C(c8ccccc8)c8ccccc8)c8ccccc8)cc7)cc6)c5nc4-c4ccc(-c5ccc(C(=C(c6ccccc6)c6ccccc6)c6ccccc6)cc5)cc4)cc3)cc2)c2ccccc2)cc1
In Cc1ccccc1
  emission maximum: 637 nm
In ClCCl
  emission maximum: 647 nm

## CCCCCCCCCn1c(-c2cc(-c3nc4ccc(C)cc4n3CCCCCCCCC)cc(-c3nc4ccc(C)cc4n3CCCCCCCCC)c2)nc2ccc(C)cc21
In C1CCOC1
  emission maximum: 371 nm

## CCCCCCCCCn1c(-c2cc(-c3nc4ccccc4n3CCCCCCCCC)cc(-c3nc4ccccc4n3CCCCCCCCC)c2)nc2ccccc21
In C1CCOC1
  emission maximum: 361.1 nm

## CCC(C)(C)c1ccc2c(c1)C(CCOC)(CCOC)c1cc(-c3ccc4c(c3)C(CCOC)(CCOC)c3cc(C(C)(C)CC)ccc3-4)ccc1-2
In C1CCCCC1
  emission maximum: 371 nm

## CC1(C)c2ccccc2N(c2ccc3c(ccc4nc5ccc6cc(N7c8ccccc8C(C)(C)c8ccccc87)ccc6c5nc43)c2)c2ccccc21
In C1CCCCC1
  emission maximum: 484 nm
In C1CCOC1
  emission maximum: 661 nm
In Cc1ccccc1
  emission maximum: 552 nm
In ClCCl
  emission maximum: 699 nm

## Cc1cccc2c3ccccc3n(-c3ccc(-c4c(-c5ccccc5)c(C#N)c(C#N)c(-c5ccccc5)c4-c4ccc(-n5c6ccccc6c6cccc(C)c65)cc4)cc3)c12
In Cc1ccccc1
  emission maximum: 440 nm
In O=P(c1ccccc1)(c1ccccc1)c1ccc2oc3ccc(P(=O)(c4ccccc4)c4ccccc4)cc3c2c1
  emission maximum: 450 nm

## CCCCn1c2ccccc2c2cc(C#Cc3ccc4ccc5cccc6ccc3c4c56)ccc21
In ClCCl
  emission maximum: 450 nm

## Cn1c2nc(=O)[nH]c(=O)c-2nc2ccccc21
In CC1CCCO1
  emission maximum: 489 nm

## c1ccc2c(c1)Sc1ccccc1N2c1ccc2c(c1)C1(CCCC1)c1cc(N3c4ccccc4Sc4ccccc43)ccc1-2
In Cc1ccccc1
  emission maximum: 491 nm

## CC1(C)CCc2c(c3ccccc3c3nc4ccccc4nc23)O1
In C1CCCCC1
  emission maximum: 459.98 nm
In C1CCOC1
  emission maximum: 483.09 nm
In CN(C)C=O
  emission maximum: 501 nm
In CO
  emission maximum: 510.99 nm
In ClC(Cl)Cl
  emission maximum: 490.92 nm
In c1ccccc1
  emission maximum: 471.03 nm

## COC(=O)C1=C(C(=O)OC)C2(c3ccccc3-c3ccccc32)[C@@H](c2ccccc2)C=C2c3cc(OC)c(OC)cc3CCN21
In ClCCl
  emission maximum: 431 nm

## c1ccc(N(c2ccccc2)c2ccc(-n3ccc4cc(-c5ccc(C6(c7ccccc7)c7ccccc7-c7ccccc76)cc5)ccc43)cc2)cc1
In ClCCl
  emission maximum: 379 nm

## CCN(CC)c1ccc2cc(C#N)c(=N)oc2c1
In ClCCl
  emission maximum: 460 nm
